Assay results published in US20110028447A1, “INDAZOLE DERIVATIVES” (Pfizer Inc., priority 2008, published 2011).
Read-outs that look alike come from different tables or passages of the source.

What was measured:
human CB1 receptor [1] = target: T1, human CB1 receptor (Homo sapiens, UniProt P21554); assay: Human CB1 receptor binding, [3H] CP-55,940 displacement on HEK cell membranes; set-up: expressed in transfected cells; host or cells: HEK cells, doxycycline-induced; membrane preparation
Outline: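 Membranes from doxycycline-induced HEK cells expressing human CB1 incubated 60 min at room temperature with [3H] CP-55,940 (final […]) in 50 mM Tris pH 7.4, 100 mM NaCl, 3 mM MgCl2, 0.2 mM EGTA, 0.04% BSA. Nonspecific binding defined with 50 μM WIN-55,212-2; filtration and scintillation counting gave EC50 and Ki.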

human CB1 receptor [2] = target: T1, human CB1 receptor; assay: [35S] GTPγS binding on membranes of CHO cells expressing the human CB1 receptor (agonism); type: biochemical; set-up: expressed in transfected cells; membrane preparation
Outline: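 Membranes from human CB1-expressing CHO cells (5 μg/well) incubated with test compound and [35S]GTPγS in 50 mM Tris pH 7.4, 100 mM NaCl, 3 mM MgCl2, 0.2 mM EGTA, 0.04% BSA for 45 min at 37 °C. Bound label collected by filtration, scintillation counted; EC50 from curve fits.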

[3] = GTPγS EC50, human CB1, CHO cell membranes
[4] = human CB1, CHO cell membranes, read-out: GTPγS EC50

T1 sequence (P21554 whole entry): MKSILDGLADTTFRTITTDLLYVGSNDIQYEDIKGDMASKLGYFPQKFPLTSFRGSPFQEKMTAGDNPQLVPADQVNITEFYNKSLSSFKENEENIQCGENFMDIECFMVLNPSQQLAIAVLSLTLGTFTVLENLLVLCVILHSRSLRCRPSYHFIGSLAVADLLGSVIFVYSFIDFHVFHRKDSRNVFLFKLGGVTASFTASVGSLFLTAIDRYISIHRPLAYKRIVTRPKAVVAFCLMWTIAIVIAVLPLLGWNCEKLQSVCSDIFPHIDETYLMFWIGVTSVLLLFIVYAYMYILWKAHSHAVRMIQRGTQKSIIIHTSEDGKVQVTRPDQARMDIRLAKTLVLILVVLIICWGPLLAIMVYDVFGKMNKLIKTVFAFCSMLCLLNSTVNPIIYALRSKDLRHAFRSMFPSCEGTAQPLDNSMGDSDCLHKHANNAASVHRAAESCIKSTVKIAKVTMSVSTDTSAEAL

SMILES	Ki (human CB1 receptor [1]; CB1 Ki)	EC50 (human CB1 receptor [2]; [3])	Ki (human CB1 receptor [1]; read-out: CB1 Ki)	EC50 (human CB1 receptor [2]; [4])
CC(C)(C)[C@H](NC(=O)c1nn(Cc2ccc(C#N)cc2F)c2c(F)cccc12)C(=O)NC1CC1 [Example 373]	0.0146 µM	0.0116 µM	–	–
CC(C)(C)[C@H](NC(=O)c1nn(Cc2ccc(C#N)cc2F)c2c(F)c(F)ccc12)C(=O)NC1CC1 [Example 374]	0.00733 µM	0.0125 µM	–	–
CC(C)(C)[C@H](NC(=O)c1nn(Cc2ccc(C#N)cc2F)c2c(F)cccc12)C(=O)NCc1nnc(C(N)=O)o1 [Example 375]	–	–	0.00792 µM	0.0314 µM
CC(C)(C)[C@H](NC(=O)c1nn(Cc2ccc(F)cc2)c2ccccc12)C(=O)NCC(=O)NCCO [Example 376]	0.00152 µM	0.0044 µM	–	–
CCOC(=O)[C@H]1C[C@@H](NC(=O)[C@@H](NC(=O)c2nn(Cc3ccc(F)cc3)c3ccccc23)C(C)(C)C)C1 [Example 381]	–	–	0.0153 µM	0.0269 µM
CC(C)NS(=O)(=O)CCNC(=O)[C@@H](NC(=O)c1nn(Cc2ccc(F)cc2)c2ccccc12)C(C)(C)C [Example 395]	–	–	0.0412 µM	0.0308 µM
CC(C)(C)[C@H](NC(=O)c1nn(Cc2ccc(F)cc2)c2ccccc12)C(=O)N[C@H]1C[C@@H](C(N)=O)C1 [Example 398]	0.0058 µM	0.0266 µM	–	–
CC(C)(C)[C@H](NC(=O)c1nn(Cc2ccc(F)cc2)c2ccccc12)C(=O)NCCS(=O)(=O)NCC1CC1 [Example 400]	–	–	0.0123 µM	0.0281 µM
CC(C)(C)[C@H](NC(=O)c1nn(Cc2ccc(F)cc2)c2ccccc12)C(=O)NCC1CCC(=O)N1 (stereo partly drawn) [Example 404]	0.0131 µM	0.0382 µM	–	–
CN1CC(CNC(=O)[C@@H](NC(=O)c2nn(Cc3ccc(F)cc3)c3ccccc23)C(C)(C)C)CC1=O (stereo partly drawn) [Example 411]	–	–	0.00373 µM	0.0213 µM
CC(C)(C)[C@H](NC(=O)c1nn(Cc2ccc(F)cc2)c2ccccc12)C(=O)NCc1n[nH]c(C2CC2)n1 [Example 413]	–	–	0.014 µM	0.052 µM
CC(C)(C)[C@H](NC(=O)c1nn(Cc2ccc(F)cc2)c2ccccc12)C(=O)NCc1n[nH]c(-c2ccccc2)n1 [Example 414]	–	–	0.00761 µM	0.0386 µM
CC(C)(C)[C@H](NC(=O)c1nn(Cc2ccc(F)cc2)c2ccccc12)C(=O)NCc1nc2n(n1)CCC2 [Example 415]	–	–	0.00869 µM	0.0108 µM
Cn1nc(CNC(=O)[C@@H](NC(=O)c2nn(Cc3ccc(F)cc3)c3ccccc23)C(C)(C)C)cc1C1CCC1 [Example 416]	–	–	0.00926 µM	0.0471 µM
CC(C)(C)[C@H](NC(=O)c1nn(Cc2ccc(F)cc2)c2ccccc12)C(=O)NCc1cnn2cccnc12 [Example 417]	–	–	0.00784 µM	0.0257 µM
CC(C)(C)[C@H](NC(=O)c1nn(Cc2ccc(F)cc2)c2ccccc12)C(=O)NCc1nc(-c2cnccn2)no1 [Example 418]	–	–	0.00078 µM	0.00407 µM
CC(C)(C)[C@H](NC(=O)c1nn(Cc2ccc(F)cc2)c2ccccc12)C(=O)NCc1cc(C2CCC2)[nH]n1 [Example 420]	–	–	0.0112 µM	0.0437 µM
Cc1nc(CNC(=O)[C@@H](NC(=O)c2nn(Cc3ccc(F)cc3)c3ccccc23)C(C)(C)C)nn1C [Example 421]	–	–	0.00288 µM	0.0172 µM
CC(C)(C)[C@H](NC(=O)c1nn(Cc2ccc(F)cc2)c2ccccc12)C(=O)NCc1cc(C2CC2)[nH]n1 [Example 422]	–	–	0.00467 µM	0.0196 µM
Cn1cc(CNC(=O)[C@@H](NC(=O)c2nn(Cc3ccc(F)cc3)c3ccccc23)C(C)(C)C)cn1 [Example 423]	0.00519 µM	0.0308 µM	–	–
CC(C)(C)[C@H](NC(=O)c1nn(Cc2ccc(F)cc2)c2ccccc12)C(=O)NCc1nc(-c2ccccn2)no1 [Example 424]	–	–	0.00128 µM	0.0102 µM
Cc1cc(CNC(=O)[C@@H](NC(=O)c2nn(Cc3ccc(F)cc3)c3ccccc23)C(C)(C)C)no1 [Example 425]	0.00092 µM	0.00336 µM	–	–
CC(C)(C)[C@H](NC(=O)c1nn(Cc2ccc(F)cc2)c2ccccc12)C(=O)NCc1cnn(-c2ccccc2)n1 [Example 427]	–	–	0.015 µM	0.0505 µM
CC(C)(C)[C@H](NC(=O)c1nn(Cc2ccc(F)cc2)c2ccc(Cl)cc12)C(=O)NCCS(N)(=O)=O [Example 432]	0.0157 µM	0.101 µM	–	–
CC(C)(C)[C@H](NC(=O)c1nn(Cc2ccc(F)cc2)c2ccc(Cl)cc12)C(=O)NC1CCC1 [Example 438]	0.0109 µM	0.02 µM	–	–
CC(C)(C)[C@H](NC(=O)c1nn(Cc2ccc(C#N)cc2)c2c(F)cccc12)C(=O)N[C@@H]1CNC(=O)C1 [Example 457]	0.00177 µM	0.108 µM	–	–
CC(C)(C)[C@H](NC(=O)c1nn(Cc2ccc(F)cc2)c2ccccc12)C(=O)N[C@@H]1CNC(=O)C1 [Example 459]	0.00278 µM	0.0177 µM	–	–

SMILES	Ki (human CB1 receptor [1]; CB1 Ki)	EC50 (human CB1 receptor [2]; [3])	Ki (human CB1 receptor [1]; read-out: CB1 Ki)	EC50 (human CB1 receptor [2]; [4])
CC(C)(C)[C@H](NC(=O)c1nn(Cc2ccc(F)cc2)c2ccccc12)C(=O)NCc1nnc(C(=O)NCCO)o1 [Example 462]	–	–	0.00229 µM	0.013 µM
CC(C)(C)[C@H](NC(=O)c1nn(Cc2ccc(F)cc2)c2ccccc12)C(=O)NCCC(N)=O [Example 470]	0.0112 µM	0.0337 µM	–	–
CC(C)(C)[C@H](NC(=O)c1nn(Cc2ccc(F)cc2F)c2ccccc12)C(=O)NCCC(N)=O [Example 472]	0.0196 µM	0.0527 µM	–	–
CC(C)(C)[C@H](NC(=O)c1nn(Cc2ccc(F)c(F)c2)c2ccccc12)C(=O)NCCC(N)=O [Example 473]	0.017 µM	0.0418 µM	–	–
CC(C)(C)[C@H](NC(=O)c1nn(Cc2ccc(F)cc2)c2c(F)cccc12)C(=O)NCCC(N)=O [Example 476]	0.00648 µM	0.0314 µM	–	–
CC(C)(C)[C@H](NC(=O)c1nn(Cc2ccc(F)cc2)c2ccccc12)C(=O)NCCOc1ccccn1 [Example 478]	–	–	0.0213 µM	0.0237 µM
CC(C)(C)[C@H](NC(=O)c1nn(Cc2ccc(F)cc2)c2ccccc12)C(=O)NCCOc1ccnc(N)n1 [Example 479]	–	–	0.0134 µM	0.131 µM
CC(C)(C)[C@H](NC(=O)c1nn(Cc2ccc(F)cc2)c2ccccc12)C(=O)NCCNc1ccccn1 [Example 480]	–	–	0.0153 µM	0.0426 µM
CC(C)(C)[C@H](NC(=O)c1nn(Cc2ccc(F)cc2)c2ccccc12)C(=O)NCCc1cnccn1 [Example 482]	–	–	0.0121 µM	0.0222 µM
CC(C)(C)[C@H](NC(=O)c1nn(Cc2ccc(F)cc2)c2ccccc12)C(=O)NC[C@H]1C[C@@H]1CO [Example 488]	0.00561 µM	0.0214 µM	–	–
CC(C)(C)[C@H](NC(=O)c1nn(Cc2ccc(C#N)cc2)c2c(F)cccc12)C(=O)NC[C@H]1C[C@H]1CO [Example 490]	0.0124 µM	0.0631 µM	–	–
CC(C)(C)[C@H](NC(=O)c1nn(Cc2ccc(F)cc2)c2ccccc12)C(=O)NC[C@H]1C[C@H]1CO [Example 492]	0.00132 µM	0.00971 µM	–	–
CC(C)NC(=O)CNC(=O)[C@@H](NC(=O)c1nn(Cc2ccc(F)cc2)c2ccccc12)C(C)(C)C [Example 493]	0.00095 µM	0.00994 µM	–	–
CC(C)(C)[C@H](NC(=O)c1nn(Cc2ccc(F)cc2)c2ccccc12)C(=O)NCC(=O)NC1CC1 [Example 494]	0.00034 µM	0.00117 µM	–	–
CC(C)(C)[C@H](NC(=O)c1nn(Cc2ccc(F)cc2)c2c(F)cc(Cl)cc12)C(=O)NC[C@H](O)CO [Example 496]	0.0165 µM	0.0302 µM	–	–
CC(C)(C)[C@H](NC(=O)c1nn(Cc2ccc(F)cc2)c2c(F)cc(Cl)cc12)C(=O)NCCS(N)(=O)=O [Example 497]	0.0167 µM	0.0595 µM	–	–
CC(C)(C)[C@H](NC(=O)c1nn(Cc2ccc(F)cc2)c2c(F)cc(Cl)cc12)C(=O)NCC(N)=O [Example 498]	0.0164 µM	0.0383 µM	–	–
CC(C)(C)[C@H](NC(=O)c1nn(Cc2ccc(F)cc2)c2ccccc12)C(=O)NCCN1CCCC1=O [Example 499]	–	–	0.0183 µM	0.204 µM
CC(C)(C)[C@H](NC(=O)c1nn(Cc2ccc(F)cc2)c2ccccc12)C(=O)NCCN1Cc2ncccc2C1=O [Example 500]	–	–	0.0101 µM	0.0474 µM
CC(C)(C)[C@H](NC(=O)c1nn(Cc2ccc(F)cc2)c2ccccc12)C(=O)NCCc1nc2ccccc2c(=O)[nH]1 [Example 501]	–	–	0.0242 µM	0.0168 µM
CC(C)(C)[C@H](NC(=O)c1nn(Cc2ccc(F)cc2)c2ccccc12)C(=O)NCCn1ccccc1=O [Example 502]	–	–	0.0173 µM	0.0369 µM
CC(C)(C)[C@H](NC(=O)c1nn(Cc2ccc(F)cc2)c2ccccc12)C(=O)NC[C@H](O)CN1CCOCC1 [Example 504]	–	–	0.0213 µM	0.132 µM
CC(C)(C)[C@H](NC(=O)c1nn(Cc2ccc(F)cc2)c2ccccc12)C(=O)NCCc1n[nH]c(=O)[nH]1 [Example 506]	–	–	0.0013 µM	0.00897 µM
Cc1cc2c(C(=O)N[C@H](C(=O)NCc3nnc(C(N)=O)o3)C(C)(C)C)nn(Cc3ccc(F)cc3)c2cc1F [Example 508]	–	–	0.00271 µM	0.0162 µM
Cc1cc2c(C(=O)N[C@H](C(N)=O)C(C)(C)C)nn(Cc3ccc(F)cc3)c2cc1F [Example 509]	0.00045 µM	0.00755 µM	–	–
Cc1cc2c(C(=O)N[C@H](C(=O)NC[C@H](O)CO)C(C)(C)C)nn(Cc3ccc(F)cc3)c2cc1F [Example 510]	0.00687 µM	0.0248 µM	–	–
Cc1cc2c(C(=O)N[C@H](C(=O)NCCO)C(C)(C)C)nn(Cc3ccc(F)cc3)c2cc1F [Example 511]	0.00068 µM	0.0067 µM	–	–
